In the supplement of paper PMC9663587:

Legend:
[1] = compound: CCCCOc1c(C(=O)c2c(F)cc(C)cc2F)c[nH]c2nncc1-2
[2] = compound: CN1CCN(CCOc2cc(OC3CCOCC3)c3c(Nc4c(Cl)ccc5c4OCO5)ncnc3c2)CC1 [Saracatinib/AZD0530]
[3] = compound: CNCc1ccc(-c2[nH]c3cc(F)cc4c3c2CCNC4=O)cc1 [Rucaparib]
[4] = compound: T1, CN(C)C/C=C/C(=O)Nc1ccc(C(=O)N2CCC[C@@H](Nc3ncc(Cl)c(-c4c[nH]c5ccccc45)n3)C2)cc1 [THZ531]
[5] = compound: CC(C)Nc1cc(-c2c[nH]c(C(=O)N[C@H](CO)c3cccc(Cl)c3)c2)c(Cl)cn1 [BVD523]
[6] = compound: T2, CN(C)C/C=C/C(=O)Nc1ccc(C(=O)Nc2cccc(Nc3ncc(Cl)c(-c4c[nH]c5ccccc45)n3)c2)cc1 [THZ1]
[7] = compound: COc1ccc2c(c1)[C@]1(C[C@H]1c1ccc3c(/C=C/c4ccc(CN5C[C@@H](C)O[C@@H](C)C5)cc4)n[nH]c3c1)C(=O)N2
[8] = compound: Cc1nc(NC(=O)N2CCC[C@H]2C(N)=O)sc1-c1ccnc(C(C)(C)C(F)(F)F)c1 [Alpelisib/BYL719]
[9] = compound: CO[C@@H](C)Cn1c(=O)n(C)c2cnc3ccc(-c4cncc(C(C)(C)O)c4)cc3c21
[10] = compound: COc1cc2c(Oc3ccc4[nH]c(C)cc4c3F)ncnc2cc1OCCCN1CCCC1 [Cediranib/AZD2171]
[11] = compound: CC(=O)Nc1cccc(-n2c(=O)n(C3CC3)c(=O)c3c(Nc4ccc(I)cc4F)n(C)c(=O)c(C)c32)c1
[12] = compound: C=CCn1c(=O)c2cnc(Nc3ccc(N4CCN(C)CC4)cc3)nc2n1-c1cccc(C(C)(C)O)n1 [AZD1775]
[13] = compound: C=CC(=O)Nc1ccc(C(=O)Nc2[nH]nc3c2CN(C(=O)N[C@H](CN(C)C)c2ccccc2)C3(C)C)cc1 [YKL-5-124]; assay: increase in dead-cell fraction, 72 h; higher = more death;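 further: breast cancer cell lines in 384-well plates, stained with Hoechst plus LIVE/DEAD far red dye and imaged, cells above an LDR intensity threshold counted dead, Hoechst-negative corpses included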
[14] = compound: CC(=O)c1c(C)c2cnc(Nc3ccc(N4CCNCC4)cn3)nc2n(C2CCCC2)c1=O; assay: as above
[15] = compound: T1, THZ531; assay: as above
[16] = compound: T2, THZ1; assay: as above
[17] = compound: CCc1cnn2c(NCc3ccc[n+]([O-])c3)cc(N3CCCC[C@H]3CCO)nc12; assay: as above
[18] = compound: CN(C)C(=O)c1cc2cnc(Nc3ccc(N4CCNCC4)cn3)nc2n1C1CCCC1 [LEE011/Ribociclib]; assay: as above
[19] = compound: CCOc1cc2ncc(C#N)c(Nc3ccc(OCc4ccccn4)c(Cl)c3)c2cc1NC(=O)/C=C/CN(C)C [Neratinib/HKI272]; assay: as above
[20] = compound: CC(=O)c1c(C)c2cnc(Nc3ccc(N4CCN(CCOCCOCCOCCNC(=O)COc5cccc6c5C(=O)N(C5CCC(=O)NC5=O)C6=O)CC4)cn3)nc2n(C2CCCC2)c1=O [BSJ-03-123]; assay: as above
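Wherever GR50, 72 h is given: breast cancer and non-malignant breast epithelial cell lines, Deep Dye Drop or Dye Drop imaging, nine half-log doses, GR normalized to time-zero plates and DMSO-only controls.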

Cell Line: BT474
- GR50, 72 h [1]: > 10 µM
- GR50, 72 h [2]: 0.896 µM
- GR50, 72 h [3]: > 10 µM
- GR50, 72 h [4]: 0.0537 µM
- GR50, 72 h [5]: > 10 µM
- GR50, 72 h [6]: 0.0129 µM
- GR50, 72 h [7]: 0.0122 µM
- GR50, 72 h [8]: 0.309 µM
- GR50, 72 h [9]: < 0.001 µM
- GR50, 72 h [10]: > 10 µM
- GR50, 72 h [11]: > 1 µM
- GR50, 72 h [12]: 0.621 µM
- increase in dead-cell fraction ([13]; 0.001 µM): 0.0145
- increase in dead-cell fraction ([13]; 0.003162 µM): 0.0218
- increase in dead-cell fraction ([13]; 0.01 µM): 0.019
- increase in dead-cell fraction ([13]; 0.03162 µM): 0.0189
- increase in dead-cell fraction ([13]; 0.1 µM): 0.0303
- increase in dead-cell fraction ([13]; 0.3162 µM): 0.0351
- increase in dead-cell fraction ([13]; 1 µM): 0.0209
- increase in dead-cell fraction ([13]; 3.162 µM): 0.0235
- increase in dead-cell fraction ([13]; 10 µM): 0.182
- increase in dead-cell fraction ([14]; 0.0003162 µM): -0.0048
- increase in dead-cell fraction ([14]; 0.001 µM): -0.0003
- increase in dead-cell fraction ([14]; 0.003162 µM): -0.0027
- increase in dead-cell fraction ([14]; 0.01 µM): 0.0006
- increase in dead-cell fraction ([14]; 0.03162 µM): 0.0074
- increase in dead-cell fraction ([14]; 0.1 µM): 0.0103
- increase in dead-cell fraction ([14]; 0.3162 µM): 0.0169
- increase in dead-cell fraction ([14]; 1 µM): 0.0196
- increase in dead-cell fraction ([14]; 3.162 µM): 0.0256
- increase in dead-cell fraction ([15]; 0.0001 µM): -0.0031
- increase in dead-cell fraction ([15]; 0.0003162 µM): 0.0048
- increase in dead-cell fraction ([15]; 0.001 µM): 0.003
- increase in dead-cell fraction ([15]; 0.003162 µM): -0.0009
- increase in dead-cell fraction ([15]; 0.01 µM): -0.0036
- increase in dead-cell fraction ([15]; 0.03162 µM): 0.0037
- increase in dead-cell fraction ([15]; 0.1 µM): 0.17
- increase in dead-cell fraction ([15]; 0.3162 µM): 0.413
- increase in dead-cell fraction ([15]; 1 µM): 0.229
- increase in dead-cell fraction ([16]; 0.0001 µM): -0.0007
- increase in dead-cell fraction ([16]; 0.0003162 µM): -0.0012
- increase in dead-cell fraction ([16]; 0.001 µM): -0.0015
- increase in dead-cell fraction ([16]; 0.003162 µM): -0.0036
- increase in dead-cell fraction ([16]; 0.01 µM): 0.0152
- increase in dead-cell fraction ([16]; 0.03162 µM): 0.0225
- increase in dead-cell fraction ([16]; 0.1 µM): 0.175
- increase in dead-cell fraction ([16]; 0.3162 µM): 0.221
- increase in dead-cell fraction ([16]; 1 µM): 0.139
- increase in dead-cell fraction ([17]; 0.0001 µM): -0.0025
- increase in dead-cell fraction ([17]; 0.0003162 µM): -0.0015
- increase in dead-cell fraction ([17]; 0.001 µM): -0.0013
- increase in dead-cell fraction ([17]; 0.003162 µM): -0.002
- increase in dead-cell fraction ([17]; 0.01 µM): 0.0053
- increase in dead-cell fraction ([17]; 0.03162 µM): 0.207
- increase in dead-cell fraction ([17]; 0.1 µM): 0.246
- increase in dead-cell fraction ([17]; 0.3162 µM): 0.265
- increase in dead-cell fraction ([17]; 1 µM): 0.249
- increase in dead-cell fraction ([18]; 0.001 µM): 0.0109
- increase in dead-cell fraction ([18]; 0.003162 µM): 0.0057
- increase in dead-cell fraction ([18]; 0.01 µM): 0.0072
- increase in dead-cell fraction ([18]; 0.03162 µM): 0.0158
- increase in dead-cell fraction ([18]; 0.1 µM): 0.0086
- increase in dead-cell fraction ([18]; 0.3162 µM): 0.0122
- increase in dead-cell fraction ([18]; 1 µM): 0.0254
- increase in dead-cell fraction ([18]; 3.162 µM): 0.0157
- increase in dead-cell fraction ([18]; 10 µM): 0.0109
- increase in dead-cell fraction ([19]; 0.0003162 µM): 0.0014
- increase in dead-cell fraction ([19]; 0.001 µM): 0.0075
- increase in dead-cell fraction ([19]; 0.003162 µM): 0.0456
- increase in dead-cell fraction ([19]; 0.01 µM): 0.235
- increase in dead-cell fraction ([19]; 0.03162 µM): 0.359
- increase in dead-cell fraction ([19]; 0.1 µM): 0.369
- increase in dead-cell fraction ([19]; 0.3162 µM): 0.38
- increase in dead-cell fraction ([19]; 1 µM): 0.438
- increase in dead-cell fraction ([19]; 3.162 µM): 0.471
- increase in dead-cell fraction ([20]; 0.001 µM): 0.0078
- increase in dead-cell fraction ([20]; 0.003162 µM): 0.0052
- increase in dead-cell fraction ([20]; 0.01 µM): 0.0155
- increase in dead-cell fraction ([20]; 0.03162 µM): 0.004
- increase in dead-cell fraction ([20]; 0.1 µM): 0.0074
- increase in dead-cell fraction ([20]; 0.3162 µM): 0.0224
- increase in dead-cell fraction ([20]; 1 µM): 0.0243
- increase in dead-cell fraction ([20]; 3.162 µM): 0.0241
- increase in dead-cell fraction ([20]; 10 µM): 0.0415
